Data reported in patent US12668590B2, “Composition and method for treating metabolic disorders” (priority 2016, dated 2026).

How the values were obtained:
[1] = Stability (degradation) of pharmaceutical preparations at 40° C. and 70% relative humidity; format: physicochemical; settings: three-month period, compared to bromocriptine mesylate
Description: Pharmaceutical preparations of bromocriptine mesylate and bromocriptine citrate are exposed to atmospheric conditions (40° C. and 70% relative humidity) and the degradation of the bromocriptine is assessed over time.

[2] = Aqueous solubility/dissolution of bromocriptine citrate relative to bromocriptine mesylate; format: physicochemical; settings: various pH conditions, compared to bromocriptine mesylate
Description: Solid samples of equal amounts of bromocriptine mesylate and bromocriptine citrate added, under various pH conditions, to equal volumes of water or water/organic solutions in different vessels and the dissolution of the bromocriptine samples (aqueous solubility) was assessed over time.

2-bromo-alpha-ergocryptine citrate [bromocriptine citrate]
degradation of the bromocriptine [1]: substantially less | rate of dissolution ([2]; solid samples in water or water/organic solutions): dissolve much more quickly | aqueous solubility (mg of bromocriptine dissolved per ml of water) ([2]; water or water/organic solutions): significantly greater solubility
